According to BindingDB's records for patent US10882866 (Boehringer Ingelheim International GmbH, 2021):

Target: T1, E3 ubiquitin-protein ligase Mdm2 [23-117] (Human, UniProt Q00987)
T1 construct: 23-117
Experiment: Inhibition AlphaScreen Assay
Procedure: A mix consisting of 20 nM GST-MDM2 protein (aa 23-117) and 20 nM biotinylated p53 wt peptide (encompassing aa 16-27 of wt human p53, amino acid sequence QETFSDLWKLLP-Ttds-Lys-Biotin, molecular weight 2132.56 g/mol) is prepared in assay buffer (50 mM Tris/HCl pH 7.2; 120 mM NaCl; 0.1% bovine serum albumin (BSA); 5 mM dithiothreitol (DTT); 1 mM ethylenediaminetetraacetic acid (EDTA); 0.01% Tween 20). 30 μL of the mix is added to the compound dilutions and incubated for 15 min at rt while gently shaking the plate at 300 rounds per minute (rpm). Subsequently, 15 μL of premixed AlphaLISA Glutathione Acceptor Beads and AlphaScreen Streptavidin Donor Beads from PerkinElmer (in assay buffer at a concentration of 10 μg/mL each) are added and the samples are incubated for 30 min at rt in the dark (shaking 300 rpm). Afterwards, the signal is measured in a PerkinElmer Envision HTS Multilabel Reader using the AlphaScreen protocol from PerkinElmer.Each plate contains negative controls where biotinylated p53-peptide and GST-MDM2 are left out and replaced by assay buffer. Negative control values are entered as low basis value when using the software GraphPad Prism for calculations.

T1 sequence (Q00987 23-117): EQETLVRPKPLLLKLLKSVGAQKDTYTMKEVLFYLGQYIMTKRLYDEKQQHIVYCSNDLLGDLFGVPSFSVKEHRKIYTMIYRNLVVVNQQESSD

IC50: 10 nM
Structure (SMILES): O=C(O)c1ccc2c(c1)nc1n2CC[C@H]2[C@@H]1[C@H](c1cccc(Cl)c1F)[C@]1(C(=O)Nc3cc(Cl)ccc31)N2CC1CC1 [US10882866, Example Ib-171]
